The values below come from publication PMC5319851 (Bioorganic & medicinal chemistry, 2016).

In one data set the target is RpMetAP1 (Rickettsia prowazekii, UniProt Q9ZCD3).
Data set [1] concerns primary pulmonary vascular endothelial cells (ECs).
The next data set concerns HsMetAP2. The following applies: read-out: HsMetAP2 IC50; cited from earlier work.
For a further data set, the system named is HsMetAP1. The following applies: read-out: HsMetAP1 IC50; cited from earlier work.

Chain of RpMetAP1 (Q9ZCD3 whole entry, looked up): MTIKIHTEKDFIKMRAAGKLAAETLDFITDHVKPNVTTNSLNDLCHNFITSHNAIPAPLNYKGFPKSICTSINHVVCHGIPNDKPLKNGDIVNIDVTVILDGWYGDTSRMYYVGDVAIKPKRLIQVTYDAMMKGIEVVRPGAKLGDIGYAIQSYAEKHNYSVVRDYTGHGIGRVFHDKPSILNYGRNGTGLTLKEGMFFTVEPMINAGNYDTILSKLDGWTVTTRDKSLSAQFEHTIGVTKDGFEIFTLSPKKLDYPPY

As for `Cc1cccc(-c2ccc(C(=O)O)o2)c1` [Compound 9], the “Hill Slope (furoic acid species)” value at RpMetAP1 is 1.0 ± 0.1.

As to `Nc1n[nH]c(SCc2ccccc2)n1` [Compound 12], in data set [1], the “Host EC metabolism (WST-1) of uninfected ECs” value (“Host EC metabolism” below) is listed as “stimulated EC metabolism”. Consider `Cc1ccccc1-c1ccc(C(=O)O)o1` [Compound 8], for which, on RpMetAP1, the “Hill Slope (furoic acid species)” value turned out to be 1.3 ± 0.1. For the molecule `O=C(O)c1ccc(-c2ccccc2C(F)(F)F)o1` [Compound 6], the “Hill Slope (furoic acid species)” value at RpMetAP1 is 2.1 ± 0.1.

For the molecule `Nc1nnc(SCc2ccc(Cl)cc2)[nH]1` [Compound 16], in data set [1], the “Effect of compound alone on appearance of EC monolayers” value is given as “no overt effect on the appearance of the monolayers” and the “Host EC metabolism” value is “stimulated EC metabolism”.

Consider `O=C(O)c1ccc(-c2cccc([N+](=O)[O-])c2)o1` [Compound 2], for which the “Hill Slope (furoic acid species)” value at RpMetAP1 is 1.0 ± 0.1. On the same count and under the same terms, the figure for `O=C(O)c1ccc(-c2ccc(Br)cc2)o1` [Compound 7] is 1.0 ± 0.1. On the same count and under the same terms, the figure for `O=C(O)c1ccc(-c2ccccc2)o1` [Compound 4, 5-phenyl-2-furoic acid] is 1.0 ± 0.1. The term IC50 denotes the concentration that inhibits the measured activity by half. Turning to `CC(C)(C)c1ccc(CSc2nnc(N)[nH]2)cc1` [Compound 19], the half-inhibitory concentration (IC50) with HsMetAP2 and with HsMetAP1 was greater than 15 µM in each case. For `O=[N+]([O-])c1cc(CN2CCOCC2)c(O)c2ncccc12` [Compound 26], the “Hill Slope (quinolinol species)” value on RpMetAP1 was 1.0 ± 0.1.

Take `Cc1ccc(-c2ccc(C(=O)O)o2)cc1` [Compound 5]: at RpMetAP1, the “Hill Slope (furoic acid species)” value was determined as 1.0 ± 0.1.

With `Oc1ccc(Cl)c2cccnc12` [Compound 22, 5-chloro-8-quinolinol], the “Hill Slope (quinolinol species)” value at RpMetAP1 came out at 1.9 ± 0.2.

Take `O=[N+]([O-])c1ccc(O)c2ncccc12` [Compound 23, nitroxoline, reference compound]: at RpMetAP1, the “Hill Slope (quinolinol species)” value came to 1.7 ± 0.5.

With `Cc1ccc2cccc(O)c2n1` [Compound 20, 2-methyl-8-quinolinol], the IC50 in the data set with HsMetAP2 is 2.03 ± 0.3 µM; in the data set with HsMetAP1 it was greater than 15 µM. In addition, on RpMetAP1, the “Hill Slope (quinolinol species)” value is given as 1.1 ± 0.1. As to `Oc1c(CN2CCOCC2)cc(Cl)c2cccnc12` [Compound 24], the “Hill Slope (quinolinol species)” value on RpMetAP1 is given as 1.5 ± 0.1. In the case of `Nc1n[nH]c(SCc2ccccc2Cl)n1` [Compound 15], the “Host EC metabolism” value in data set [1] was “stimulated EC metabolism”. `O=C(O)c1ccc(-c2cccc(C(F)(F)F)c2)o1` [Compound 3]: the “Hill Slope (furoic acid species)” value at RpMetAP1 is given as 1.0 ± 0.1.
